Experimental data taken from patent publication US12552783B2, “Modulators of proteolysis and associated methods of use” (Arvinas Operations, Inc., priority 2018, dated 2026).

Target: KRas (Homo sapiens, UniProt P01116, G12C)
Experiment: KRas degradation in NCI-H2030 cells by Western blot, normalized to GAPDH (data of Table 14)
Type: cell-based
Set-up: host or cells: NCI-H2030
Settings: H2030 cells; for Percent Degradation at Indicated Concentration (μM): 0.3: 0.3 μM; for Percent Degradation at Indicated Concentration (μM): 1: 1 μM; for Percent Degradation at Indicated Concentration (μM): 3: 3 μM; for Dmax: NCI-H2030; for Percent Degradation at Indicated Concentration (μM): 0.1: 0.1 μM
Outline: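 Readout: GAPDH-normalized KRas immunoblot signal, expressed as percent degradation versus 0.1% DMSO vehicle. Treatment: 0.3, 1, 3 μM after 24 h starvation; 24 h (VHL-based) or 72 h (others).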

Row | Percent Degradation at Indicated Concentration (μM): 0.3 | Percent Degradation at Indicated Concentration (μM): 1 | Percent Degradation at Indicated Concentration (μM): 3 | Dmax [%] | Percent Degradation at Indicated Concentration (μM): 0.1 | SMILES
1 | C (C ≤ 35) | C (C ≤ 35) | C (C ≤ 35) | ≤ 35 |  | CCC(=O)N1CCN(c2nc(NCCC(=O)N(C)CCOCCOCCOCCOc3ccc4c(c3)C(=O)N(C3CCC(=O)NC3=O)C4=O)nc3c(F)c(-c4cc(O)cc5ccccc45)c(Cl)cc23)CC1 (centres unmarked) [compound 49, 3-((6-chloro-8-fluoro-7-(3-hydroxynaphthalen-1-yl)-4-(4-propionylpiperazin-1-yl)quinazolin-2-yl)amino)-N-(2-(2-(2-(2-((2-(2,6-dioxopiperidin-3-yl)-1,3-dioxoisoindolin-5-yl)oxy)ethoxy)ethoxy)ethoxy)ethyl)-N-methylpropanamide]
2 | C (C ≤ 35) | C (C ≤ 35) | C (C ≤ 35) | ≤ 35 |  | CCC(=O)N1CCN(c2nc(NCCC(=O)N(C)CCOCCOCCOCCOCCOc3ccc4c(c3)C(=O)N(C3CCC(=O)NC3=O)C4=O)nc3c(F)c(-c4cc(O)cc5ccccc45)c(Cl)cc23)CC1 (centres unmarked) [compound 50, 3-((6-chloro-8-fluoro-7-(3-hydroxynaphthalen-1-yl)-4-(4-propionylpiperazin-1-yl)quinazolin-2-yl)amino)-N-(14-((2-(2,6-dioxopiperidin-3-yl)-1,3-dioxoisoindolin-5-yl)oxy)-3,6,9,12-tetraoxatetradecyl)-N-methylpropanamide]
3 | C (C ≤ 35) | C (C ≤ 35) | C (C ≤ 35) | ≤ 35 |  | CCC(=O)N1CCN(c2nc(NCCC(=O)N(C)CCOCCOCCOc3ccc4c(c3)CN(C3CCC(=O)NC3=O)C4=O)nc3c(F)c(-c4cc(O)cc5ccccc45)c(Cl)cc23)CC1 (centres unmarked) [compound 52, 3-((6-chloro-8-fluoro-7-(3-hydroxynaphthalen-1-yl)-4-(4-propionylpiperazin-1-yl)quinazolin-2-yl)amino)-N-(2-(2-(2-((2-(2,6-dioxopiperidin-3-yl)-1-oxoisoindolin-5-yl)oxy)ethoxy)ethoxy)ethyl)-N-methylpropanamide]
4 | C (C ≤ 35) | C (C ≤ 35) | C (C ≤ 35) | ≤ 35 |  | CCC(=O)N1CCN(c2nc(NCCC(=O)N(C)CCOCCOCCOCCOc3ccc4c(c3)CN(C3CCC(=O)NC3=O)C4=O)nc3c(F)c(-c4cc(O)cc5ccccc45)c(Cl)cc23)CC1 (centres unmarked) [compound 53, 3-((6-chloro-8-fluoro-7-(3-hydroxynaphthalen-1-yl)-4-(4-propionylpiperazin-1-yl)quinazolin-2-yl)amino)-N-(2-(2-(2-(2-((2-(2,6-dioxopiperidin-3-yl)-1-oxoisoindolin-5-yl)oxy)ethoxy)ethoxy)ethoxy)ethyl)-N-methylpropanamide]
5 | C (C ≤ 35) | C (C ≤ 35) | C (C ≤ 35) | ≤ 35 |  | CCC(=O)N1CCN(c2nc(NCCC(=O)N(C)CCOCCOCCOCCOCCOc3ccc4c(c3)CN(C3CCC(=O)NC3=O)C4=O)nc3c(F)c(-c4cc(O)cc5ccccc45)c(Cl)cc23)CC1 (centres unmarked) [compound 54, 3-((6-chloro-8-fluoro-7-(3-hydroxynaphthalen-1-yl)-4-(4-propionylpiperazin-1-yl)quinazolin-2-yl)amino)-N-(14-((2-(2,6-dioxopiperidin-3-yl)-1-oxoisoindolin-5-yl)oxy)-3,6,9,12-tetraoxatetradecyl)-N-methylpropanamide]
6 | C (C ≤ 35) | C (C ≤ 35) | C (C ≤ 35) | ≤ 35 |  | C=CC(=O)N1CCN(c2nc(NCCC(=O)N(C)CCOCCOc3ccc4c(c3)C(=O)N(C3CCC(=O)NC3=O)C4=O)nc3c(F)c(-c4cc(O)cc5ccccc45)c(Cl)cc23)CC1 (centres unmarked) [compound 60, 3-((4-(4-acryloylpiperazin-1-yl)-6-chloro-8-fluoro-7-(3-hydroxynaphthalen-1-yl)quinazolin-2-yl)amino)-N-(2-(2-((2-(2,6-dioxopiperidin-3-yl)-1,3-dioxoisoindolin-5-yl)oxy)ethoxy)ethyl)-N-methylpropanamide]
7 | C (C ≤ 35) | C (C ≤ 35) |  | ≤ 35 | C (C ≤ 35) | C=CC(=O)N1CCN(c2nc(NCCC(=O)N(C)CCOCCOCCOc3ccc4c(c3)C(=O)N(C3CCC(=O)NC3=O)C4=O)nc3c(F)c(-c4cc(O)cc5ccccc45)c(Cl)cc23)CC1 (centres unmarked) [compound 61, 3-((4-(4-acryloylpiperazin-1-yl)-6-chloro-8-fluoro-7-(3-hydroxynaphthalen-1-yl)quinazolin-2-yl)amino)-N-(2-(2-(2-((2-(2,6-dioxopiperidin-3-yl)-1,3-dioxoisoindolin-5-yl)oxy)ethoxy)ethoxy)ethyl)-N-methylpropanamide]
8 | C (C ≤ 35) | C (C ≤ 35) | C (C ≤ 35) | ≤ 35 |  | C=CC(=O)N1CCN(c2nc(NCCC(=O)N(C)CCOCCOCCOCCOc3ccc4c(c3)C(=O)N(C3CCC(=O)NC3=O)C4=O)nc3c(F)c(-c4cc(O)cc5ccccc45)c(Cl)cc23)CC1 (centres unmarked) [compound 62, 3-((4-(4-acryloylpiperazin-1-yl)-6-chloro-8-fluoro-7-(3-hydroxynaphthalen-1-yl)quinazolin-2-yl)amino)-N-(2-(2-(2-(2-((2-(2,6-dioxopiperidin-3-yl)-1,3-dioxoisoindolin-5-yl)oxy)ethoxy)ethoxy)ethoxy)ethyl)-N-methylpropanamide]

Further lines, the molecule ahead of its results:

Row | SMILES | Percent Degradation at Indicated Concentration (μM): 0.3 | Percent Degradation at Indicated Concentration (μM): 1 | Percent Degradation at Indicated Concentration (μM): 3 | Dmax [%] | Percent Degradation at Indicated Concentration (μM): 0.1
9 | CCC(=O)N1CCN(c2nc(NCCC(=O)N(C)CCOCCOc3ccc4c(c3)CN(C3CCC(=O)NC3=O)C4=O)nc3c(F)c(-c4cc(O)cc5ccccc45)c(Cl)cc23)CC1 (centres unmarked) [compound 51, 3-((6-chloro-8-fluoro-7-(3-hydroxynaphthalen-1-yl)-4-(4-propionylpiperazin-1-yl)quinazolin-2-yl)amino)-N-(2-(2-((2-(2,6-dioxopiperidin-3-yl)-1-oxoisoindolin-5-yl)oxy)ethoxy)ethyl)-N-methylpropanamide] | C (C ≤ 35) | C (C ≤ 35) | C (C ≤ 35) | ≤ 35 | 
10 | C=CC(=O)N1CCN(c2nc(NCCC(=O)N(C)CCNc3cccc4c3C(=O)N(C3CCC(=O)NC3=O)C4=O)nc3c(F)c(-c4cc(O)cc5ccccc45)c(Cl)cc23)CC1 (centres unmarked) [compound 55, 3-((4-(4-acryloylpiperazin-1-yl)-6-chloro-8-fluoro-7-(3-hydroxynaphthalen-1-yl)quinazolin-2-yl)amino)-N-(2-((2-(2,6-dioxopiperidin-3-yl)-1,3-dioxoisoindolin-4-yl)amino)ethyl)-N-methylpropanamide] | C (C ≤ 35) | C (C ≤ 35) |  | ≤ 35 | C (C ≤ 35)
11 | C=CC(=O)N1CCN(c2nc(NCCC(=O)N(C)CCOCCNc3cccc4c3C(=O)N(C3CCC(=O)NC3=O)C4=O)nc3c(F)c(-c4cc(O)cc5ccccc45)c(Cl)cc23)CC1 (centres unmarked) [compound 56, 3-((4-(4-acryloylpiperazin-1-yl)-6-chloro-8-fluoro-7-(3-hydroxynaphthalen-1-yl)quinazolin-2-yl)amino)-N-(2-(2-((2-(2,6-dioxopiperidin-3-yl)-1,3-dioxoisoindolin-4-yl)amino)ethoxy)ethyl)-N-methylpropanamide] | C (C ≤ 35) | C (C ≤ 35) | C (C ≤ 35) | ≤ 35 | 
12 | C=CC(=O)N1CCN(c2nc(NCCC(=O)N(C)CCOCCOCCNc3cccc4c3C(=O)N(C3CCC(=O)NC3=O)C4=O)nc3c(F)c(-c4cc(O)cc5ccccc45)c(Cl)cc23)CC1 (centres unmarked) [compound 57, 3-((4-(4-acryloylpiperazin-1-yl)-6-chloro-8-fluoro-7-(3-hydroxynaphthalen-1-yl)quinazolin-2-yl)amino)-N-(2-(2-(2-((2-(2,6-dioxopiperidin-3-yl)-1,3-dioxoisoindolin-4-yl)amino)ethoxy)ethoxy)ethyl)-N-methylpropanamide] | C (C ≤ 35) | C (C ≤ 35) | C (C ≤ 35) | ≤ 35 | 
13 | C=CC(=O)N1CCN(c2nc(NCCC(=O)N(C)CCOCCOCCOCCNc3cccc4c3C(=O)N(C3CCC(=O)NC3=O)C4=O)nc3c(F)c(-c4cc(O)cc5ccccc45)c(Cl)cc23)CC1 (centres unmarked) [compound 58, 3-((4-(4-acryloylpiperazin-1-yl)-6-chloro-8-fluoro-7-(3-hydroxynaphthalen-1-yl)quinazolin-2-yl)amino)-N-(2-(2-(2-(2-((2-(2,6-dioxopiperidin-3-yl)-1,3-dioxoisoindolin-4-yl)amino)ethoxy)ethoxy)ethoxy)ethyl)-N-methylpropanamide] | C (C ≤ 35) | C (C ≤ 35) | C (C ≤ 35) | ≤ 35 | 
14 | C=CC(=O)N1CCN(c2nc(NCCC(=O)N(C)CCOCCOCCOCCOCCNc3cccc4c3C(=O)N(C3CCC(=O)NC3=O)C4=O)nc3c(F)c(-c4cc(O)cc5ccccc45)c(Cl)cc23)CC1 (centres unmarked) [compound 59, 3-((4-(4-acryloylpiperazin-1-yl)-6-chloro-8-fluoro-7-(3-hydroxynaphthalen-1-yl)quinazolin-2-yl)amino)-N-(14-((2-(2,6-dioxopiperidin-3-yl)-1,3-dioxoisoindolin-4-yl)amino)-3,6,9,12-tetraoxatetradecyl)-N-methylpropanamide] | C (C ≤ 35) | C (C ≤ 35) |  | ≤ 35 | C (C ≤ 35)
